Results reported in ChEMBL document CHEMBL2401728, “An unexpected Dimroth rearrangement leading to annelated thieno[3,2-d][1,2,3]triazolo[1,5-a]pyrimidines with potent antitumor activity” (Eur J Med Chem, 2013).

Key:
Assay type in all cases: functional
[1] = tested on: OVCAR-8; assay: Cytotoxicity against human OVCAR8 cells after 48 hrs by SRB assay; details: OVCAR-8, 48 h
[2] = tested on: TK-10; assay: Cytotoxicity against human TK10 cells assessed as cellular growth at 1 uM after 48 hrs by SRB assay relative to control
[3] = tested on: M14; assay: Cytotoxicity against human M14 cells assessed as cellular growth at 0.1 uM after 48 hrs by SRB assay relative to control
[4] = Cytotoxicity against human NCI-ADR-RES cells assessed as cellular growth at 0.1 uM after 48 hrs by SRB assay relative to control
[5] = tested on: OVCAR-4; assay: Cytotoxicity against human OVCAR4 cells assessed as cellular growth at 0.01 uM after 48 hrs by SRB assay relative to control
[6] = tested on: SF-539; assay: Cytotoxicity against human SF539 cells assessed as cellular growth at 100 uM after 48 hrs by SRB assay relative to control
[7] = tested on: IGROV-1; assay: Cytotoxicity against human IGROV1 cells at 10 uM after 48 hrs by SRB assay
[8] = tested on: TK-10; assay: Cytotoxicity against human TK10 cells assessed as cellular growth at 0.1 uM after 48 hrs by SRB assay relative to control
[9] = tested on: HL-60(TB); assay: Cytotoxicity against human HL-60(TB) cells assessed as cellular growth at 0.1 uM after 48 hrs by SRB assay relative to control
[10] = tested on: 786-0; assay: Cytotoxicity against human 786-0 cells assessed as cellular growth at 0.01 uM after 48 hrs by SRB assay relative to control
[11] = tested on: MCF7; assay: Cytotoxicity against human MCF7 cells assessed as cellular growth at 0.1 uM after 48 hrs by SRB assay relative to control
[12] = tested on: CCRF-CEM; assay: Cytotoxicity against human CCRF-CEM cells after 48 hrs by SRB assay
[13] = tested on: ACHN; assay: Cytotoxicity against human ACHN cells assessed as cellular growth at 0.1 uM after 48 hrs by SRB assay relative to control
[14] = tested on: HCT-116; assay: Cytotoxicity against human HCT116 cells assessed as cellular growth at 0.01 uM after 48 hrs by SRB assay relative to control
[15] = tested on: NCI-H23; assay: Cytotoxicity against human NCI-H23 cells assessed as cellular growth at 100 uM after 48 hrs by SRB assay relative to control
[16] = tested on: HOP-62; assay: Cytotoxicity against human HOP62 cells assessed as cellular growth at 0.1 uM after 48 hrs by SRB assay relative to control
[17] = tested on: UO-31; assay: Cytotoxicity against human UO31 cells assessed as cellular growth at 0.1 uM after 48 hrs by SRB assay relative to control
[18] = tested on: A498; assay: Cytotoxicity against human A498 cells after 48 hrs by SRB assay; details: A498, 48 h
[19] = tested on: SNB-75; assay: Cytotoxicity against human SNB75 cells assessed as cellular growth at 0.01 uM after 48 hrs by SRB assay relative to control
[20] = tested on: A498; assay: Cytotoxicity against human A498 cells assessed as cellular growth at 10 uM after 48 hrs by SRB assay relative to control
[21] = tested on: SK-MEL-28; assay: Cytotoxicity against human SK-MEL-28 cells assessed as cellular growth at 1 uM after 48 hrs by SRB assay relative to control
[22] = tested on: SNB-75; assay: Cytotoxicity against human SNB75 cells assessed as cellular growth at 0.1 uM after 48 hrs by SRB assay relative to control
[23] = tested on: M14; assay: Cytotoxicity against human M14 cells after 48 hrs by SRB assay; details: M14, 48 h
[24] = tested on: OVCAR-5; assay: Cytotoxicity against human OVCAR5 cells assessed as cellular growth at 1 uM after 48 hrs by SRB assay relative to control
[25] = tested on: NCI-H522; assay: Cytotoxicity against human NCI-H522 cells assessed as cellular growth at 100 uM after 48 hrs by SRB assay relative to control
[26] = tested on: ACHN; assay: Cytotoxicity against human ACHN cells assessed as cellular growth at 1 uM after 48 hrs by SRB assay relative to control
[27] = tested on: COLO 205; assay: Cytotoxicity against human COLO205 cells assessed as cellular growth at 0.1 uM after 48 hrs by SRB assay relative to control
[28] = tested on: 786-0; assay: Cytotoxicity against human 786-0 cells assessed as cellular growth at 100 uM after 48 hrs by SRB assay relative to control
[29] = tested on: Hs-578T; assay: Cytotoxicity against human Hs578T cells assessed as cellular growth at 0.1 uM after 48 hrs by SRB assay relative to control
[30] = tested on: A498; assay: Cytotoxicity against human A498 cells assessed as cellular growth at 0.01 uM after 48 hrs by SRB assay relative to control
[31] = tested on: NCI-H522; assay: Cytotoxicity against human NCI-H522 cells assessed as cellular growth at 1 uM after 48 hrs by SRB assay relative to control
[32] = tested on: SR; assay: Cytotoxicity against human SR cells after 48 hrs by SRB assay
[33] = tested on: HCT-15; assay: Cytotoxicity against human HCT15 cells assessed as cellular growth at 1 uM after 48 hrs by SRB assay relative to control
[34] = tested on: MDA-MB-435; assay: Cytotoxicity against human MDA-MB-435 cells after 48 hrs by SRB assay; details: MDA-MB-435, 48 h
[35] = tested on: RXF 393; assay: Cytotoxicity against human RXF393 cells after 48 hrs by SRB assay; details: RXF 393, 48 h
[36] = tested on: UACC-62; assay: Cytotoxicity against human UACC62 cells assessed as cellular growth at 0.01 uM after 48 hrs by SRB assay relative to control
[37] = tested on: COLO 205; assay: Cytotoxicity against human COLO205 cells assessed as cellular growth at 100 uM after 48 hrs by SRB assay relative to control
[38] = read-out: LC50 (the source's name)
[39] = read-out: pLC50 (the source's name) (converted)

O=C(CCCn1c2c(sc3ccccc32)c(=O)n2nnc(-c3ccccc3)c12)NCCc1c[nH]cn1
GI50 ([1]; read-out: GI50): < 0.01 µM | CC50 [1, 38]: > 100 µM | TGI ([1]; read-out: TGI): 2.99 µM | GI50 ([1]; read-out: pGI50 (converted)): 0.01 µM | CC50 ([1]; read-out: pLC50 (converted)): > 100 µM | TGI ([1]; read-out: pTGI (converted)): 3.02 µM | Activity [2]: 121% | Activity [3]: 68% | Activity [4]: 97% | Activity [5]: 110% | Activity [6]: -99% | Activity [7]: -89% | Activity [8]: 93% | Activity [9]: 43% | Activity [10]: 98% | Activity [11]: 75% | GI50 ([12]; read-out: GI50): 0.0156 µM | CC50 [12, 38]: 5.29 µM | TGI ([12]; read-out: TGI): 0.29 µM | GI50 ([12]; read-out: pGI50 (converted)): 0.0155 µM | CC50 [12, 39]: 5.25 µM | TGI ([12]; read-out: pTGI (converted)): 0.288 µM | Activity [13]: 100% | Activity [14]: 16% | Activity [15]: -38% | Activity [16]: 80% | Activity [17]: 106% | GI50 ([18]; read-out: GI50): 1.09 µM | CC50 [18, 38]: 5.61 µM | TGI ([18]; read-out: TGI): 2.47 µM | GI50 ([18]; read-out: pGI50 (converted)): 1.1 µM | CC50 [18, 39]: 5.62 µM | TGI ([18]; read-out: pTGI (converted)): 2.45 µM | Activity [19]: 103% | Activity [20]: -85% | Activity [21]: 92% | Activity [22]: 115% | GI50 ([23]; read-out: GI50): 0.327 µM | TGI ([23]; read-out: TGI): 2.05 µM | GI50 ([23]; read-out: pGI50 (converted)): 0.324 µM | TGI ([23]; read-out: pTGI (converted)): 2.04 µM | Activity [24]: 14% | Activity [25]: -25% | Activity [26]: 83% | Activity [27]: 60% | Activity [28]: -68% | Activity [29]: 91% | Activity [30]: 93% | Activity [31]: 42% | GI50 ([32]; read-out: GI50): 0.218 µM | CC50 [32, 38]: 4.99 µM | TGI ([32]; read-out: TGI): 0.664 µM | GI50 ([32]; read-out: pGI50 (converted)): 0.219 µM | CC50 [32, 39]: 5.01 µM | TGI ([32]; read-out: pTGI (converted)): 0.661 µM | Activity [33]: 29% | GI50 ([34]; read-out: GI50): 0.345 µM | CC50 [34, 38]: 4.7 µM | TGI ([34]; read-out: TGI): 1.87 µM | GI50 ([34]; read-out: pGI50 (converted)): 0.347 µM | CC50 [34, 39]: 4.68 µM | TGI ([34]; read-out: pTGI (converted)): 1.86 µM | GI50 ([35]; read-out: GI50): 2.2 µM | CC50 [35, 38]: 7.77 µM | TGI ([35]; read-out: TGI): 4.14 µM | GI50 ([35]; read-out: pGI50 (converted)): 2.19 µM | CC50 [35, 39]: 7.76 µM | TGI ([35]; read-out: pTGI (converted)): 4.17 µM | Activity [36]: 99% | Activity [37]: -100%

CN1CCN(CCCn2c3c(sc4ncccc43)c(=O)n3nnc(-c4ccccc4)c23)CC1
GI50 ([1]; read-out: GI50): 1.93 µM | CC50 [1, 38]: > 100 µM | TGI ([1]; read-out: TGI): 4.49 µM | GI50 ([1]; read-out: pGI50 (converted)): 1.95 µM | CC50 ([1]; read-out: pLC50 (converted)): > 100 µM | TGI ([1]; read-out: pTGI (converted)): 4.47 µM | Activity [2]: 119% | Activity [3]: 94% | Activity [4]: 91% | Activity [5]: 100% | Activity [6]: -69% | Activity [7]: -51% | Activity [8]: 99% | Activity [9]: 91% | Activity [10]: 103% | Activity [11]: 87% | GI50 ([12]; read-out: GI50): 1.67 µM | CC50 [12, 38]: > 100 µM | TGI ([12]; read-out: TGI): 4.29 µM | GI50 ([12]; read-out: pGI50 (converted)): 1.66 µM | CC50 [12, 39]: > 100 µM | TGI ([12]; read-out: pTGI (converted)): 4.27 µM | Activity [13]: 91% | Activity [14]: 97% | Activity [15]: -59% | Activity [16]: 84% | Activity [17]: 53% | GI50 ([18]; read-out: GI50): 11.2 µM | CC50 [18, 38]: 52.3 µM | TGI ([18]; read-out: TGI): 24.2 µM | GI50 ([18]; read-out: pGI50 (converted)): 11.2 µM | CC50 [18, 39]: 52.5 µM | TGI ([18]; read-out: pTGI (converted)): 24 µM | Activity [19]: 76% | Activity [20]: 57% | Activity [21]: 99% | Activity [22]: 71% | GI50 ([23]; read-out: GI50): 1.87 µM | CC50 [23, 38]: 7.16 µM | TGI ([23]; read-out: TGI): 3.66 µM | GI50 ([23]; read-out: pGI50 (converted)): 1.86 µM | CC50 [23, 39]: 7.24 µM | TGI ([23]; read-out: pTGI (converted)): 3.63 µM | Activity [24]: 99% | Activity [25]: -35% | Activity [26]: 84% | Activity [27]: 89% | Activity [28]: -58% | Activity [29]: 93% | Activity [30]: 67% | Activity [31]: 99% | GI50 ([32]; read-out: GI50): 2.25 µM | TGI ([32]; read-out: TGI): 4.74 µM | GI50 ([32]; read-out: pGI50 (converted)): 2.24 µM | TGI ([32]; read-out: pTGI (converted)): 4.79 µM | Activity [33]: 89% | GI50 ([34]; read-out: GI50): 1.87 µM | CC50 [34, 38]: 6.68 µM | TGI ([34]; read-out: TGI): 3.54 µM | GI50 ([34]; read-out: pGI50 (converted)): 1.86 µM | CC50 [34, 39]: 6.76 µM | TGI ([34]; read-out: pTGI (converted)): 3.55 µM | GI50 ([35]; read-out: GI50): 1.7 µM | CC50 [35, 38]: 5.86 µM | TGI ([35]; read-out: TGI): 3.15 µM | GI50 ([35]; read-out: pGI50 (converted)): 1.7 µM | CC50 [35, 39]: 5.89 µM | TGI ([35]; read-out: pTGI (converted)): 3.16 µM | Activity [36]: 91% | Activity [37]: -86%
